A short description of data set [1]: LNP size and PDI by dynamic laser light scattering. In kind it is physicochemical. As to conditions: LNP: 50% cationic lipid, 38.5% cholesterol, 10% DSPC, 1.5% DMG-PEG2000; Ffluc mRNA. In short, it runs like this:
(§1)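 LNPs of cationic lipid/cholesterol/DSPC/DMG-PEG2000 at 50/38.5/10/1.5 mol% in ethanol, mixed with Ffluc mRNA at 0.2 mg/mL in 10 mM pH 4.0 citrate via T-mixer at 40 mL/min. Dialyzed overnight against 50 mM Tris-buffered saline pH 7.4 and sieved; PDI by dynamic light scattering, encapsulation by Ribogreen.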

Data set [2] in a line: mRNA encapsulation efficiency of LNP by Ribogreen assay. In kind it is physicochemical. As to conditions: LNP: 50% cationic lipid, 38.5% cholesterol, 10% DSPC, 1.5% DMG-PEG2000; Ffluc mRNA. In a few lines:
as §1

Data set [3] has as its system mice. As to the kind of experiment: In vivo delivery of Ffluc mRNA LNP in mice, intravenous administration, luminescence relative to MC3. Set-up: species or system mice (female Balb/C). As to conditions: fold change in luminescence intensity relative to MC3; 0.06 mg/kg tail vein; 6 h after injection. In a few lines:
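Female Balb/C mice (18-22 g, 6-8 weeks, n=5) received Ffluc mRNA LNP at 0.06 mg/kg by tail vein in 50 mM TBS pH 7.4. Six hours later, intraperitoneal D-luciferin was given and whole-body luminescence imaged, with each lipid reported as fold change relative to MC3 LNP.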

In data set [4] the test system is mice. As to the kind of experiment: In vivo delivery of Ffluc mRNA LNP in mice, intramuscular administration, luminescence relative to MC3. Set-up: species or system mice (female Balb/C). The note with it: fold change in luminescence intensity relative to MC3; 50 μL of 0.1 mg/mL mRNA LNP into right thigh; 6 h after injection. On the procedure:
The prepared encapsulation solution was applied to mice in the following manner, and its delivery efficiency in mice was tested. Among them, DLin-MC3-DMA (MC3) was a cationic liposome for delivering small nucleic acids that was approved by the FDA for marketing in 2018, which has high nucleic acid drug delivery efficiency and biosafety, and was usually used as the industry gold standard in the screening process of cationic lipids. In the evaluation of mice experiments, the ratio of nucleic acid delivery efficiency normalized to MC3 was greater than 0.1, which was considered to be a cationic lipid with high delivery efficiency.
The LNP solution was diluted with 50 mM TBS, pH 7.4 to a concentration of 0.1 mg/mL mRNA.
2. The mice involved in this study were female Balb/C, weighing 18-22 g, 6-8 weeks old, with 5 mice in each group.
3. The dosing solution was kept at 4° C. prior to injection.
4. 50 μL of LNP solution was injected into the right thigh of the mice.
5. The mice were injected intraperitoneally with 200 μL of 1.5 mg/mL D-luciferin solution 6 h after injection.
6. The in vivo luminescence images of the mice were obtained using the IVIS system (Aniview).
7. The luminescence intensity of each mice was measured using Aniview software.
8. MC3 lipid nanoparticles were used as a positive control. The in vivo efficacy of each cationic lipid tested was recorded as the fold change in luminescence intensity relative to MC3 (ratio normalized to MC3).

For `CCCCCCCCCC/C(=C/C(=O)OCCCCCCN(CCCO)CCCCCCOC(=O)/C=C(\CCCC)CCCCCCCCCC)CCCC` [CPL-066, ((3-hydroxypropyl)azanediyl)bis(hexane-6,1-diyl) (2E,2′E)-bis(3-butyl-2-tridecenoate)], in data set [1], the PDI is given as 0.19 and the “Size (nm)” value is reported as 87.2 nm. For the same compound, the “Encapsulation Rate” value in data set [2] is 98%. Moreover, in the data set with mice [3], the “In Vivo Efficacy Normalized To Mc3 In Mice (Intravenous Injection)” value was determined as 1.95. Moreover, the “In Vivo Efficacy Normalized To Mc3 In Mice (Intramuscular Injection)” value in the data set on mice [4] is reported as 4.04.

The values are drawn from patent US20250214925A1, “CATIONIC LIPID, LIPOSOME, LIPID NANOPARTICLE, AND USE” (CARCELL BIOPHARMA LTD., priority 2022, published 2025).
